Assay results: publication PMC8568920, “Serum apolipoprotein A-I potentiates the therapeutic efficacy of lysocin E against Staphylococcus aureus” (Nature Communications, 2021)
Converted amounts (≈) assume the structure as drawn. Like-named read-outs stand apart in the source and are kept apart here.

Key:
[1] = system: S. aureus RN4220; assay: Direct antimicrobial activity of ApoA-I and ApoA-II; assay type: cell-based, Staphylococcus aureus; conditions: up to 300 or 600 µg ml^−1; purified bovine and human proteins
Experimental: (§1) The antimicrobial activities of the compounds were measured using the microdilution method. Measurement of the bactericidal activity of lysocin E (0.25 µg ml^−1) and nisin (2 µg ml^−1) with or without ApoA-I was performed according to the National Committee for Clinical Laboratory Standards method. […] For the ∆menA and ∆menB strains, TSB medium was used instead of cation-adjusted-Mueller Hinton broth (CA-MHB) in the microdilution method. Sera and ApoA-I, II were added to the bacterial culture before distributing them into 96-well plates. ApoA-I and ApoA-II antimicrobial activity were evaluated using the RN4220 strain. The protein binding rate of lysocin E against human plasma was determined by a rapid equilibrium dialysis device (Thermo Fisher Scientific, Waltham, MA, USA) according to the manufacturer’s instructions.

[2] = cited from earlier work
[3] = system: MRSA; assay: microbe, parasite or virus in culture; conditions: for MIC: Staphylococcus aureus
Experimental: as §1

[4] = system: MRSA MR6 strain; assay: Mouse systemic MRSA infection model, survival ED50; assay type: in vivo; conditions: ICR female mice; MRSA MR6 i.p. 5.7 × 10^7 CFU in mucin; s.c. at 1 h and 6 h after infection; survival after 5 days; 5 animals/group; logistic regression
Experimental: Mouse protocols followed the Regulations for Animal Care and Use of the University of Tokyo under approval by the Graduate School of Pharmaceutical Science at the University of Tokyo (approval nos. 24–55). Mice were housed in a group of at most five in a cage, kept in a room maintained at 23–24 °C, 55% humidity, and 12 h light/12 h dark cycle. For Table 1, clinically isolated MRSA MR6 strain[47] was cultured overnight, suspended in 7% type II porcine stomach mucin supplemented with 0.2 mM FeNH4-citrate and intraperitoneally administered to mice (ICR, female, 4 weeks of age) at 5.7 × 10^7 colony-forming units. Lysocin E (4–0.25 mg kg^−1), vancomycin (8–0.5 mg kg^−1), linezolid (8–0.5 mg kg^−1), or daptomycin (4–0.25 mg kg^−1) were administered subcutaneously to 5 animals/group at 1 h and 6 h after infection. Mouse survival was assessed after 5 days and ED50 values were calculated by multiple logistic regression analysis. For Fig. 1d, the Newman strain was cultured in TSB overnight and cells (4.0 × 10^7 colony-forming units) were washed in phosphate-buffered saline (PBS) were injected into the tail vein of 8–12-week-old female C57BL/6J wild-type mice or Apoa1 homozygous-deficient mice. After 2 h, lysocin E (0.5 mg kg^−1) was administered subcutaneously. After 24 h, the kidneys were harvested and crushed with a BioMasher II (Nippi Incorporated, Tokyo, Japan). The suspensions were diluted with PBS(−), plated on TSB agar medium and the number of colonies was counted.

[5] = molecular target: T1, rhApoA-I (Homo sapiens, UniProt P02647); assay: rhApoA-I pull-down assay (antimicrobial bound to rhApoA-I, UPLC-MS); assay type: binding; design: unit not given here
T1 construct: 1 65 146 160 185 243; made in house; host or cells: E. coli BL21(DE3)/pLysS, pET20b (pET-hApoWT)
Experimental: Menaquinone 4 (MK-4; 100 µl of 1.25 mM) was mixed with N-dodecyl β-D-maltoside (250 µl of 100 mM) in the presence or absence of purified lipid II or lipids (300 µl of 70 µM). Lipid II fraction was prepared from S. aureus RN4220 treated with moenomycin, followed by park nucleotide removal. The mixture was dried in vacuo and dissolved in 2 ml of water. The micelles were then filtered through a 0.45-µm polyvinylidene difluoride membrane filter and a 200 µl aliquot of the filtered micelles were used to evaluate the binding of the antimicrobials in the presence of rhApoA-I. Briefly, 5 µg of antimicrobials was added to the aliquots and the mixture was incubated for 15 min on ice in the presence of 4 µg rhApoA-I. The mixture was then transferred to His-Tag magnetic beads (Dynabeads, Thermo Fisher). The bound protein was then eluted with 250 mM imidazole and then eluted antimicrobials were quantified using an ACQUITY ultra-performance liquid chromatography (UPLC) H-Class PLUS attached to Xevo G2-XS QTof system (Waters Corporation). After injecting the sample into a 2.1 × 100 mm Acquity UPLC HSS T3 1.8 μm column (Waters Corporation) equilibrated with 0.3 mL min^–1 of 30% acetonitrile and 0.1% formic acid in water, the column was developed with a linear gradient to 60% acetonitrile and 0.1% formic acid in water over 10 min. The eluate was continuously applied to a Waters Xevo G2-XS QTof mass spectrometer and the spectra were obtained using MassLynx 4.1 (Waters Corporation) in electrospray ionisation (ESI)-positive mode that was analysed by UNIFI Scientific Information System ver. 1.9 (Waters Corporation).

[6] = system: S. aureus ∆menA strain; assay: MIC by microdilution in TSB; assay type: cell-based, Staphylococcus aureus; conditions: TSB medium; two independent experiments
Experimental: as §1

[7] = system: S. aureus ∆menB strain; assay: MIC by microdilution in TSB; assay type: cell-based, Staphylococcus aureus; conditions: TSB medium; two independent experiments
Experimental: as §1

[8] = system: S. aureus RN4220; conditions: for MIC, Control / MIC +rhApoA-I relative to control (fold) / MIC, +rhApoA-I 25µg ml-1: RN4220; for MIC, Control: no rhApoA-I; for MIC +rhApoA-I relative to control (fold) / MIC, +rhApoA-I 25µg ml-1: rhApoA-I 25 µg ml-1
Experimental: as §1

[9] = system: S. aureus; assay: Lysocin E antimicrobial activity-enhancing activity (1 unit decreases the MIC of lysocin E to 1 µg ml−1); assay type: cell-based, Staphylococcus aureus; conditions: ApoA species
Experimental: Calf serum (10 ml) was added to 15 ml EtOH (60% v/v) and the mixture was centrifuged for 15 min. The collected supernatant was evaporated and suspended in 8 ml Milli-Q water (fraction [fr.] II). Fr. II with formic acid (0.1%) was applied to 10 ml of ODS resin (Waters Corporation, Milford, MA, USA). After washing with 25% EtOH and then 50% EtOH, the resin was eluted with 75% EtOH containing 0.1% formic acid. The eluted sample was evaporated and dissolved in 0.8 ml buffer A (10 mM phosphate buffer [pH 7.1], 6 M urea; Fr. III). Fr. III was applied to the Superose 12 10/300 GL gel filtration column (GE Healthcare) and eluted with the AKTApurifier system (GE Healthcare). The elution was performed in buffer A at a flow rate of 0.5 ml min^−1 and 60 fractions (0.5 ml per fr.) were collected in 2-ml tubes. All fractions, except for Fr. I, were dialysed in 10 mM phosphate buffer (pH 7.1) before assessment of their activities. Protein concentrations were measured using Coomassie Plus^TM protein assay reagent (Thermo Fisher) with bovine serum albumin as the standard. Amino acid sequence analysis was performed by in-gel digestion and mass spectrometric analysis. One unit was defined as the activity that decreases the MIC of lysocin E to 1 µg ml^−1.

T1 sequence (P02647 25-267): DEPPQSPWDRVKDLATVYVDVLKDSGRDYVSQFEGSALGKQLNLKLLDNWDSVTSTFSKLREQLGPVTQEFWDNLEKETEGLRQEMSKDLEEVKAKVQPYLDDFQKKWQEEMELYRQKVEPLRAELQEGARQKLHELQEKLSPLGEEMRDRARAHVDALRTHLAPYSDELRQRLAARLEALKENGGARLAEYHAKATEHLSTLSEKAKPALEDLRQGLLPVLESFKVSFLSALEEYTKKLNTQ

Molecule: ApoA-II: purified bovine and human apolipoprotein A-II
- Inhibition of S. aureus growth by the protein alone [1]: did not inhibit S. aureus growth

Molecule: CC(=O)NC[C@H]1CN(c2ccc(N3CCOCC3)c(F)c2)C(=O)O1 [Linezolid, linezolid]
- Protein binding (%, human plasma) ([2]; human): 18[52] %
- MIC ([3]; MRSA, read-out: Antimicrobial activity (MIC)): 2 µg/mL (≈ 5.93 µM)
- MIC ([3]; MRSA, read-out: MIC in 10% bovine serum): 2 µg/mL (≈ 5.93 µM)
- Therapeutic effect (ED50) [4]: 3.8 mg/kg

Molecule: nisin (ITSISLCTPGCKTGALMGCNMKTATCHCSIHVSK)
- Nisin binding to rhApoA-I (pull-down) ([5]; CL, replicate 1): 0.284
- Nisin binding to rhApoA-I (pull-down) ([5]; CL, replicate 2): 0.1757
- Nisin binding to rhApoA-I (pull-down) ([5]; CL, replicate 3): 0.257
- Nisin binding to rhApoA-I (pull-down) ([5]; LTA, replicate 1): 0.1611
- Nisin binding to rhApoA-I (pull-down) ([5]; LTA, replicate 2): 0.2119
- Nisin binding to rhApoA-I (pull-down) ([5]; LTA, replicate 3): 0.3298
- Nisin binding to rhApoA-I (pull-down) ([5]; Lipid II, replicate 1): 1.947
- Nisin binding to rhApoA-I (pull-down) ([5]; Lipid II, replicate 2): 4.556
- Nisin binding to rhApoA-I (pull-down) ([5]; Lipid II, replicate 3): 3.824
- Nisin binding to rhApoA-I (pull-down) ([5]; PG, replicate 1): 0.4181
- Nisin binding to rhApoA-I (pull-down) ([5]; PG, replicate 2): 0.2568
- Nisin binding to rhApoA-I (pull-down) ([5]; PG, replicate 3): 0.2266
- Nisin binding to rhApoA-I (pull-down) ([5]; Vehicle (no lipid added), replicate 1): 0.2456
- Nisin binding to rhApoA-I (pull-down) ([5]; Vehicle (no lipid added), replicate 2): 0.223
- Nisin binding to rhApoA-I (pull-down) ([5]; Vehicle (no lipid added), replicate 3): 0.2718
- Antimicrobial activity (MIC), ∆menA [6]: 16
- Antimicrobial activity (MIC), ∆menB [7]: 16
- MIC, Control [8]: 8 µg/mL
- MIC +rhApoA-I relative to control (fold) [8]: 1/4
- MIC, +rhApoA-I 25µg ml-1 [8]: 2 µg/mL
- MIC, Control ([8]; with lipid II 25 µg ml-1): > 32 µg/mL
- MIC, +rhApoA-I 25µg ml-1 ([8]; with lipid II 25 µg ml-1): > 32 µg/mL
- Antimicrobial activity (MIC), WT ([8]; wild-type RN4220, TSB medium, two independent experiments): 16

Molecule: rhApoA-I: recombinant human ApoA-I
- Specific activity for lysocin E antimicrobial enhancing activity [9]: 6500 unit mg-1 protein

Molecule: ApoA-I: purified bovine and human apolipoprotein A-I
- Inhibition of S. aureus growth by the protein alone [1]: did not inhibit S. aureus growth

Molecule: hApoA-II: purified human ApoA-II (Calbiochem)
- Specific activity for lysocin E antimicrobial enhancing activity [9]: 5900 unit mg-1 protein

Molecule: CN[C@H](CC(C)C)C(=O)N[C@H]1C(=O)N[C@@H](CC(N)=O)C(=O)N[C@H]2C(=O)N[C@H]3C(=O)N[C@H](C(=O)N[C@H](C(=O)O)c4cc(O)cc(O)c4-c4cc3ccc4O)[C@H](O)c3ccc(c(Cl)c3)Oc3cc2cc(c3O[C@@H]2O[C@H](CO)[C@@H](O)[C@H](O)[C@H]2O[C@H]2C[C@](C)(N)[C@H](O)[C@H](C)O2)Oc2ccc(cc2Cl)[C@H]1O [Vancomycin, vancomycin]
- Protein binding (%, human plasma) ([2]; human plasma): 10–50[51] %
- MIC in 10% bovine serum ([3]; MRSA, 10% bovine serum in medium): 1 µg/mL (≈ 0.69 µM)
- Antimicrobial activity (MIC) ([3]; MRSA, microdilution, no serum): 1 µg/mL
- Therapeutic effect (ED50) [4]: 4.2 mg/kg
- MIC, Control [8]: 1 µg/mL (≈ 0.69 µM)
- MIC +rhApoA-I relative to control (fold) [8]: 1/1
- MIC, +rhApoA-I 25µg ml-1 [8]: 1 µg/mL (≈ 0.69 µM)

Molecule: CCCCCCCCCC(=O)N[C@@H](Cc1c[nH]c2ccccc12)C(=O)N[C@H](CC(N)=O)C(=O)N[C@@H](CC(=O)O)C(=O)N[C@@H]1C(=O)NCC(=O)N[C@@H](CCCN)C(=O)N[C@@H](CC(=O)O)C(=O)N[C@H](C)C(=O)N[C@@H](CC(=O)O)C(=O)NCC(=O)N[C@H](CO)C(=O)N[C@@H]([C@H](C)CC(=O)O)C(=O)N[C@@H](CC(=O)c2ccccc2N)C(=O)O[C@@H]1C [Daptomycin, daptomycin]
- Protein binding (%, human plasma) ([2]; human plasma): 90–96[52] %
- Antimicrobial activity (MIC) [3]: 0.5 µg/mL
- MIC in 10% bovine serum [3]: 1 µg/mL (≈ 0.617 µM)
- Therapeutic effect (ED50) [4]: 0.73 mg/kg
- MIC, Control [8]: 0.5 µg/mL (≈ 0.309 µM)
- MIC +rhApoA-I relative to control (fold) [8]: 1/1
- MIC, +rhApoA-I 25µg ml-1 [8]: 0.5 µg/mL (≈ 0.309 µM)
